Measured values taken from patent US10052331B2, “3-(3H-imidazo[4,5-C]pyridin-2-yl)-1H-pyrazolo[3,4-C]pyridine and therapeutic uses thereof” (Samumed, LLC, priority 2014, dated 2018).

Experiments:
[1] = tested on: Wnt activity (Wnt-responsive Sp5 promoter-luciferase reporter in SW480 cells); assay: Wnt activity screening assay: Sp5-Luc reporter gene in SW480 colon carcinoma cells; format: cell-based; settings: Homo sapiens
Text: The screening assay for Wnt activity is described as follows. Reporter cell lines can be generated by stably transducing cancer cell lines (e.g., colon cancer) or primary cells (e.g., IEC-6 intestinal cells) with a lentiviral construct that includes a Wnt-responsive promoter driving expression of the firefly luciferase gene.
SW480 colon carcinoma cells were transduced with a lentiviral vector expressing luciferase with a human Sp5 promoter consisting of a sequence of eight TCF/LEF binding sites. SW480 cells stably expressing the Sp5-Luc reporter gene and a hygromycin resistance gene were selected by treatment with 150 μg/ml of hygromycin for 7 days. These stably transduced SW480 cells were expanded in cell culture and used for all further screening activities. For Sp5-Luc reporter gene assays, the cells were plated at 10,000 cells/well in 96-well plates with growth medium containing 10% fetal calf serum and incubated overnight at 37° C. and 5% CO2. Each compound was dissolved in DMSO as a 10 mM stock in standard j-vials and used to prepare compound source plates in dose-response format with 3-fold serial dilutions and a 10 mM top concentration. Compound transfer from serially diluted source plates to assay plates containing the cells was accomplished using a pintool (Multimek 96, Beckman equipped with V&P Scientific FP1S50H pins) based liquid handling protocol. This protocol used a slotted pin to transfer 50 nl of compound from a source plate well to an assay plate well containing 50 μl of cells in growth medium. […] Control wells received 50 nl of DMSO treatment for normalization and calculating IC50 values. The treated cells were incubated at 37° C. and 5% CO2 for an additional forty-two hours. Following incubation, the growth medium was removed and 50 μl of BrightGlo luminescence reagent (Promega) was added to each well of the 96-well assay plates. The plates were placed on an orbital shaker for 5 min and then luminescence was quantified on the Victor3 (Perkin Elmer) plate reader. Readings were normalized to DMSO only treated cells, and normalized activities were utilized for IC50 calculations using the dose-response log (inhibitor) vs. response-variable slope (four parameters) nonlinear regression feature available in GraphPad Prism 5.0 or 6.0.

[2] = tested on: primary human fibroblasts derived from IPF patients (LL29 cells); assay: Inhibition of fibrotic process: αSMA staining in TGF-β1-treated primary human fibroblasts from IPF patients (LL29 cells); format: cell-based; settings: Fibroblast, 96 h, LL29 cells treated with TGF-β1 (20 ng/mL), 4 days, 11-point dose-response from 10 μM to 1.87 nM, read-out: Inhibition of fibrosis EC50
Text: The above synthesized compounds were screened using primary human fibroblasts (derived from IPF patients) treated with TGF-β1 to determine their ability to inhibit the fibrotic process.
Primary human fibroblasts derived from IPF patients (LL29 cells) [^1Xiaoqiu Liu, et. al., “Fibrotic Lung Fibroblasts Show Blunted Inhibition by cAMP Due to Deficient cAMP Response Element-Binding Protein Phosphorylation”, Journal of Pharmacology and Experimental Therapeutics (2005), 315(2), 678-687; ^2Watts, K. L., et. al., “RhoA signaling modulates cyclin D1 expression in human lung fibroblasts; implications for idiopathic pulmonary fibrosis”, Respiratory Research (2006), 7(1), 88] were obtained from American Type Culture Collection (ATCC) and expanded in F12 medium supplemented with 15% Fetal Bovine Serum and Penicillin/Streptomycin.
Each compound was dissolved in DMSO as a 10 mM stock and used to prepare compound source plates. Serial dilution (1:2, 11-point dose-response curves from 10 μM to 1.87 nM) and compound transfer was performed using the ECHO 550 (Labcyte, Sunnyvale, Calif.) into 384-well clear bottom assay plates (Greiner Bio-One) with appropriate DMSO backfill for a final DMSO concentration of 0.1%. LL29 cells were plated at 1,500 cells/well in 80 μl/well F12 medium supplemented with 1% Fetal Bovine Serum. One hour after addition of the cells, TGF-β1 (Peprotech; 20 ng/mL) was added to the plates to induce fibrosis (ref. 1 and 2 above). Wells treated with TGF-β1 and containing DMSO were used as controls. Cells were incubated at 37° C. and 5% CO2 for 4 days. Following incubation for 4 days, SYTOX green nucleic acid stain (Life Technologies [Thermo Fisher Scientific]) was added to the wells at a final concentration of 1 uM and incubated at room temperature for 30 min. Cells were then fixed using 4% formaldehyde (Electron Microscopy Sciences), washed 3 times with PBS followed by blocking and permeabilization using 3% Bovine Serum Albumin (BSA; Sigma) and 0.3% Triton X-100 (Sigma) in PBS. Cells were then stained with antibody specific to α-smooth muscle actin (αSMA; Abcam) (ref. 1 and 2 above) in 3% Bovine Serum Albumin (BSA; Sigma) and 0.3% Triton X-100 (Sigma) in PBS, and incubated overnight at 4° C. Cells were then washed 3 times with PBS, followed by incubation with Alexa Flor-647 conjugated secondary antibody (Life Technologies [Thermo Fisher Scientific]) and DAPI at room temperature for 1 hour. Cells were then washed 3 times with PBS and plates were sealed for imaging. αSMA staining was imaged by excitation at 630 nm and emission at 665 nm and quantified using the Compartmental Analysis program on the CellInsight CX5 (Thermo Scientific). Dead or apoptotic cells were excluded from analysis based on positive SYTOX green staining. % of total cells positive for αSMA were counted in each well and normalized to the average of 11 wells treated with TGF-β1 on the same plate using Dotmatics' Studies Software. The normalized averages (fold change over untreated) of 3 replicate wells for each compound concentration were used to create dose-responses curves and EC50 values were calculated using non-linear regression curve fit in the Dotmatics' Studies Software. The EC50 values are reported.

SMILES: Cc1ccncc1-c1cc2c(-c3nc4c(-c5ccncc5)cncc4[nH]3)n[nH]c2cn1 [Compound 109, 5-(4-Methylpyridin-3-yl)-3-(7-(pyridin-4-yl)-3H-imidazo[4,5-c]pyridin-2-yl)-1H-pyrazolo[3,4-c]pyridine]
- IC50 [1]: > 10000 nM
- EC50 [2]: ≥ 9990 nM

SMILES: CCCC(=O)Nc1cncc(-c2cc3c(-c4nc5c(-c6ccncc6)cncc5[nH]4)n[nH]c3cn2)c1 [Compound 121, N-(5-(3-(7-(Pyridin-4-yl)-3H-imidazo[4,5-c]pyridin-2-yl)-1H-pyrazolo[3,4-c]pyridin-5-yl)pyridin-3-yl)butyramide]
- IC50 [1]: > 10000 nM
- EC50 [2]: ≥ 9990 nM

SMILES: CCNCc1cncc(-c2cc3c(-c4nc5c(-c6ccccn6)cncc5[nH]4)n[nH]c3cn2)c1 [Compound 136, N-((5-(3-(7-(Pyridin-2-yl)-3H-imidazo[4,5-c]pyridin-2-yl)-1H-pyrazolo[3,4-c]pyridin-5-yl)pyridin-3-yl)methyl)ethanamine]
- IC50 [1]: 562 nM
- EC50 [2]: 598 nM

SMILES: O=C(Nc1cncc(-c2cc3c(-c4nc5c(-c6ccccn6)cncc5[nH]4)n[nH]c3cn2)c1)c1ccccc1 [Compound 141, N-(5-(3-(7-(Pyridin-2-yl)-3H-imidazo[4,5-c]pyridin-2-yl)-1H-pyrazolo[3,4-c]pyridin-5-yl)pyridin-3-yl)benzamide]
- IC50 [1]: > 10000 nM
- EC50 [2]: ≥ 9990 nM

SMILES: CCCCC(=O)Nc1cncc(-c2cc3c(-c4nc5c(-c6ccccn6)cncc5[nH]4)n[nH]c3cn2)c1 [Compound 148, N-(5-(3-(7-(Pyridin-2-yl)-3H-imidazo[4,5-c]pyridin-2-yl)-1H-pyrazolo[3,4-c]pyridin-5-yl)pyridin-3-yl)pentanamide]
- IC50 [1]: > 10000 nM
- EC50 [2]: ≥ 9990 nM

SMILES: c1ccc(-c2cncc3[nH]c(-c4n[nH]c5cnc(-c6cncc(CNCC7CCCC7)c6)cc45)nc23)nc1 [Compound 154, 1-Cyclopentyl-N-((5-(3-(7-(pyridin-2-yl)-3H-imidazo[4,5-c]pyridin-2-yl)-1H-pyrazolo[3,4-c]pyridin-5-yl)pyridin-3-yl)methyl)methanamine]
- IC50 [1]: 945 nM
- EC50 [2]: 649 nM

SMILES: CCC(=O)Nc1cncc(-c2cc3c(-c4nc5c(N6CCCCC6)cncc5[nH]4)n[nH]c3cn2)c1 [Compound 157, N-(5-(3-(7-(Piperidin-1-yl)-3H-imidazo[4,5-c]pyridin-2-yl)-1H-pyrazolo[3,4-c]pyridin-5-yl)pyridin-3-yl)propionamide]
- IC50 [1]: 866 nM
- EC50 [2]: 1560 nM

SMILES: CN(C)c1cncc(-c2cc3c(-c4nc5c(N6CCCCC6)cncc5[nH]4)n[nH]c3cn2)c1 [Compound 163, N,N-Dimethyl-5-(3-(7-(piperidin-1-yl)-3H-imidazo[4,5-c]pyridin-2-yl)-1H-pyrazolo[3,4-c]pyridin-5-yl)pyridin-3-amine]
- IC50 [1]: 310 nM
- EC50 [2]: 38 nM

SMILES: CN(C)Cc1cncc(-c2cc3c(-c4nc5c(N6CCCCC6)cncc5[nH]4)n[nH]c3cn2)c1 [Compound 169, N,N-Dimethyl-1-(5-(3-(7-(piperidin-1-yl)-3H-imidazo[4,5-c]pyridin-2-yl)-1H-pyrazolo[3,4-c]pyridin-5-yl)pyridin-3-yl)methanamine]
- IC50 [1]: 122 nM
- EC50 [2]: 74 nM

SMILES: O=C(Nc1cncc(-c2cc3c(-c4nc5c(N6CCCCC6)cncc5[nH]4)n[nH]c3cn2)c1)C1CC1 [Compound 175, N-(5-(3-(7-(Piperidin-1-yl)-3H-imidazo[4,5-c]pyridin-2-yl)-1H-pyrazolo[3,4-c]pyridin-5-yl)pyridin-3-yl)cyclopropanecarboxamide]
- IC50 [1]: 820 nM
- EC50 [2]: ≤ 9 nM

SMILES: CN1CCN(c2cncc3[nH]c(-c4n[nH]c5cnc(-c6cncc(N)c6)cc45)nc23)CC1 [Compound 211, 5-(3-(7-(4-Methylpiperazin-1-yl)-3H-imidazo[4,5-c]pyridin-2-yl)-1H-pyrazolo[3,4-c]pyridin-5-yl)pyridin-3-amine]
- IC50 [1]: > 10000 nM
- EC50 [2]: ≤ 9 nM

SMILES: CC(C)C(=O)Nc1cncc(-c2cc3c(-c4nc5c(N6CCN(C)CC6)cncc5[nH]4)n[nH]c3cn2)c1 [Compound 217, N-(5-(3-(7-(4-Methylpiperazin-1-yl)-3H-imidazo[4,5-c]pyridin-2-yl)-1H-pyrazolo[3,4-c]pyridin-5-yl)pyridin-3-yl)isobutyramide]
- IC50 [1]: 557 nM
- EC50 [2]: ≥ 9990 nM

SMILES: CN1CCN(c2cncc3[nH]c(-c4n[nH]c5cnc(-c6cncc(CN7CCCCC7)c6)cc45)nc23)CC1 [Compound 223, 3-(7-(4-Methylpiperazin-1-yl)-3H-imidazo[4,5-c]pyridin-2-yl)-5-(5-(piperidin-1-ylmethyl)pyridin-3-yl)-1H-pyrazolo[3,4-c]pyridine]
- IC50 [1]: 1380 nM
- EC50 [2]: ≥ 9990 nM

SMILES: CN1CCN(c2cncc3[nH]c(-c4n[nH]c5cnc(-c6cncc(NC(=O)C7CCCC7)c6)cc45)nc23)CC1 [Compound 229, N-(5-(3-(7-(4-Methylpiperazin-1-yl)-3H-imidazo[4,5-c]pyridin-2-yl)-1H-pyrazolo[3,4-c]pyridin-5-yl)pyridin-3-yl)cyclopentanecarboxamide]
- IC50 [1]: 440 nM
- EC50 [2]: ≥ 9990 nM

SMILES: CN1CCN(c2cncc3[nH]c(-c4n[nH]c5cnc(-c6cncnc6)cc45)nc23)CC1 [Compound 234, 3-(7-(4-methylpiperazin-1-yl)-3H-imidazo[4,5-c]pyridin-2-yl)-5-(pyrimidin-5-yl)-1H-pyrazolo[3,4-c]pyridine]
- IC50 [1]: 379 nM
- EC50 [2]: 966 nM

SMILES: Cc1ccncc1-c1cc2c(-c3nc4c(-c5ccsc5)cncc4[nH]3)n[nH]c2cn1 [Compound 239, 5-(4-Methylpyridin-3-yl)-3-(7-(thiophen-3-yl)-3H-imidazo[4,5-c]pyridin-2-yl)-1H-pyrazolo[3,4-c]pyridine]
- IC50 [1]: 40 nM
- EC50 [2]: ≤ 9 nM

SMILES: c1ccc(CNCc2cncc(-c3cc4c(-c5nc6c(-c7ccsc7)cncc6[nH]5)n[nH]c4cn3)c2)cc1 [Compound 257, N-Benzyl-1-(5-(3-(7-(thiophen-3-yl)-3H-imidazo[4,5-c]pyridin-2-yl)-1H-pyrazolo[3,4-c]pyridin-5-yl)pyridin-3-yl)methanamine]
- IC50 [1]: 653 nM
- EC50 [2]: 2630 nM

SMILES: CCNCc1cncc(-c2cc3c(-c4nc5c(-c6ccoc6)cncc5[nH]4)n[nH]c3cn2)c1 [Compound 266, N-((5-(3-(7-(Furan-3-yl)-3H-imidazo[4,5-c]pyridin-2-yl)-1H-pyrazolo[3,4-c]pyridin-5-yl)pyridin-3-yl)methyl)ethanamine]
- IC50 [1]: > 10000 nM
- EC50 [2]: ≥ 9990 nM

SMILES: CC(C)Nc1cncc(-c2cc3c(-c4nc5c(-c6ccoc6)cncc5[nH]4)n[nH]c3cn2)c1 [Compound 272, 5-(3-(7-(Furan-3-yl)-3H-imidazo[4,5-c]pyridin-2-yl)-1H-pyrazolo[3,4-c]pyridin-5-yl)-N-isopropylpyridin-3-amine]
- IC50 [1]: 37.6 nM
- EC50 [2]: ≤ 9 nM
